These results are taken from ChEMBL document CHEMBL2073852, “Transport of fluorescein methotrexate by multidrug resistance-associated protein 3 in IEC-6 cells” (Am J Physiol Gastrointest Liver Physiol, 2003).

As usually defined, the Km is the concentration of substrate that gives half-maximal velocity.

Format in all cases: functional, cell membranes, Membrane vesicle
The target in data set [1] is T1, Mrp3 (ATP-binding cassette sub-family C member 3, ABCC3) (Rattus norvegicus, UniProt O88563). The experiment in a line: TP_TRANSPORTER: inhibition of F-MTX uptake (F-MTX: 5.0 uM, E217betaG: 75.0 uM) in membrane vesicles from Mrp3-Sf9 cells. The arrangement: scale not given: the % may be the effect or the level left. Particulars: membrane vesicles from Mrp3-expressing Sf9 cells, probe F-MTX; read-out: Activity.

Data set [2] has as its target ATP-binding cassette sub-family C member 3 (Rattus norvegicus, UniProt O88563). The experiment in a line: TP_TRANSPORTER: inhibition of F-MTX uptake (F-MTX: 5.0 uM, E217betaG: 75.0 uM) in membrane vesicles from IEC-6 cells. Particulars: iec-6, 75 µM. Also on record: scale not given: the % may be the effect or the level left.
The target of data set [3] is T1, Mrp3 (ATP-binding cassette sub-family C member 3, ABCC3). As to the kind of experiment: TP_TRANSPORTER: inhibition of F-MTX uptake (F-MTX: 5.0 uM, MK-571: 100.0 uM) in membrane vesicles from Mrp3-Sf9 cells. Also on record: scale not given: the % may be the effect or the level left. Particulars: membrane vesicles from Mrp3-expressing Sf9 cells, probe F-MTX; read-out: Activity.

The target is the same in data set [4]. As to the kind of experiment: TP_TRANSPORTER: inhibition of F-MTX uptake (F-MTX: 5.0 uM, MK-571: 100.0 uM) in membrane vesicles from IEC-6 cells. Particulars: probe F-MTX, read-out: Activity. Also on record: scale not given: the % may be the effect or the level left.
Substrate in data set [5]: CN(Cc1cnc2nc(N)nc(N)c2n1)c1ccc(C(=O)N[C@@H](CCC(=O)O)C(=O)O)cc1
The experiment in a line: TP_TRANSPORTER: uptake in membrane vesicles from Mrp3-Sf9 cells.

Substrate in data set [6]: CN(Cc1cnc2nc(N)nc(N)c2n1)c1ccc(C(=O)N[C@@H](CCC(=O)O)C(=O)O)cc1
As to the kind of experiment: TP_TRANSPORTER: uptake in membrane vesicles from IEC-6 cells.

Take `C[C@]12CC[C@@H]3c4ccc(O)cc4CC[C@H]3[C@@H]1CC[C@@H]2O[C@@H]1O[C@H](C(=O)O)[C@@H](O)[C@H](O)[C@H]1O` [ESTRADIOL 17B GLUCURONIDE]: the activity at 75 µM in data set [1] came to 19.2%. In data set [2], this molecule returned an Activity of 41.7%.

For the molecule `CN(C)C(=O)CCSC(SCCC(=O)O)c1cccc(/C=C/c2ccc3ccc(Cl)cc3n2)c1` (stereo unspecified) [MK-571], the activity at 100 µM in data set [3] amounted to 4.9%; in data set [4] it was 9.5%.

B1: ATP-binding cassette sub-family C member 3 (Rattus norvegicus) (protein)
chain: MDRLCGSGELGSKFWDSNLTVYTNTPDLTPCFQNSLLAWVPCIYLWAALPCYLFYLRHHRLGYIVLSCLSRLKTALGVLLWCISWVDLFYSFHGLVHGSSPAPVFFITPLLVGITMLLATLLIQYERLRGVRSSGVLIIFWLLCVICAIIPFRSKILLALAEGKILDPFRFTTFYIYFALVLCAFILSCFQEKPPLFSPENLDTNPCPEASAGFFSRLSFWWFTKLAILGYRRPLEDSDLWSLSEEDCSHKVVQRLLEAWQKQQTQASGPQTAALEPKIAGEDEVLLKARPKTKKPSFLRALVRTFTSSLLMGACFKLIQDLSPSSTHSCSASSSGLFRPHGPYWWGFLLAGLMFVSSTMQTLILHQHYHCIFVMALRIRTAIIGVIYRKALTITNSVKREYTVGEMVNLMSVDAQRFMDVSPFINLLWSAPLQVILAIYFLWQILGPSALAGVAVIVLLIPLNGAVSMKMKTYQVQQMKFKDSRIKLMSEILNGIKVLKLYAWEPTFLEQVEGIRQGELQLLRKGAYLQAISTFIWVCTPFMVTLITLGVYVCVDKNNVLDAEKAFVSLSLFNILKIPLNLLPQLISGMTQTSVSLKRIQDFLNQDELDPQCVERKTISPGRAITIHNGTFSWSKDLPPTLHSINIQIPKGALVAVVGPVGCGKSSLVSALLGEMEKLEGAVSVKGSVAYVPQQAWIQNCTLQENVLFGQPMNPKRYQQALETCALLADLDVLPGGDQTEIGEKGINLSGGQRQRVSLARAVYSDANIFLLDDPLSAVDSHVAKHIFDQVIGPEGVLAGKTRVLVTHGISFLPQTDFIIVLADGQITEMGHYSELLQHDGSFANFLRNYAPDENQEANEGVLQHANEEVLLLEDTLSTHTDLTDTEPAIYEVRKQFMREMSSLSSEGEGQNRPVLKRYTSSLEKEVPATQTKETGALIKEEIAETGNVKLSVYWDYAKSVGLCTTLFICLLYAGQNAVAIGANVWLSAWTNDVEEHGQQNNTSVRLGVYATLGILQGLLVMLSAFTMVVGAIQAARLLHTALLHNQIRAPQSFFDTTPSGRILNRFSKDIYVIHEVLAPTILMLFNSFYTSISTIVVIVASTPLFCVVVLPLAVFYGFVQRFYVATSRQLKRLESVSRSPIFSHFSETVTGTSVIRAYGRVQDFKVLSDAKVDSNQKTTYPYIASNRWLGVHVEFVGNCVVLFSALFAVIGRNSLNPGLVGLSVSYALQVTLSLNWMIRTLSDLESNIIAVERVKEYSKTETEAPWVLESNRAPEGWPRSGVVEFRNYSVRYRPGLELVLKNLTLHVQGGEKVGIVGRTGAGKSSMTLCLFRILEAAEGEIFIDGLNVAHIGLHDLRSQLTIIPQDPILFSGTLRMNLDPFGRYSDEDIWRTLELSHLSAFVSSQPTGLDFQCSEGGDNLSVGQRQLVCLARALLRKSRVLVLDEATAAIDLETDDLIQGTIRTQFEDCTVLTIAHRLNTIMDYNRVLVLDKGVVAEFDSPVNLIAAGGIFYGMAKDAGLA
Consider B1, for which the Km was 4.5 µM in data set [5] and 11.7 µM in data set [6].
